# Source: patent publication US20230115274A1, “COMPOUNDS AND COMPOSITIONS FOR TREATING CONDITIONS ASSOCIATED WITH STING ACTIVITY” (IFM Due, Inc., priority 2019, published 2023)
# Target: T1, hSTING (Homo sapiens, UniProt Q86WV6, G230A/H232R/R293Q/R71H)
# T1 construct: host or cells: THP1-Dual KO-IFNAR2 cells
# Assay: STING reporter assay (luciferase) in THP1-Dual KO-IFNAR2 cells stimulated with 2′3′cGAMP
# Format: cell-based
# Conditions: 2′3′cGAMP 15 μM, 24 h, class symbols
# In short: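 THP1-Dual KO-IFNAR2 cells (2×10E6 cells/mL) were treated with compound at 0.0017-100 μM final plus 15 μM final 2′3′cGAMP delivered with Lipofectamine 2000. After 24 h at 37° C., secreted luciferase in supernatant was read by QUANTI-Luc luminescence and EC50 values were fitted.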
# T1 sequence (Q86WV6 whole entry R71H/G230A/H232R/R293Q): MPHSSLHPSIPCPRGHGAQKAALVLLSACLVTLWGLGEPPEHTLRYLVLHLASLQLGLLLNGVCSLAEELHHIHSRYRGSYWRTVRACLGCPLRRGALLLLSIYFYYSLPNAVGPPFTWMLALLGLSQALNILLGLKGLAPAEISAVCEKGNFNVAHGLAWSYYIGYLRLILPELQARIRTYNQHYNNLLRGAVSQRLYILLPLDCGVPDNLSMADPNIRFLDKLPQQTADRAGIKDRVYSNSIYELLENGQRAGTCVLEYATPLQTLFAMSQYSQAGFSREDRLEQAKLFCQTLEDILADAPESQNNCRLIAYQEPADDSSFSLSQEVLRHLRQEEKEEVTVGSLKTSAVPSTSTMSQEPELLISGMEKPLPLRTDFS
row,Compound,EC50 [nM]
1,"O=C(Nc1cnc(C2CCC(F)(F)CC2)c(CO)c1)Nc1c[nH]c2ncc(F)cc12 [Compound 158, 1-(6-(4,4-difluorocyclohexyl)-5-(hydroxymethyl)pyridin-3-yl)-3-(5-fluoro-1H-pyrrolo[2,3-b]pyridin-3-yl)urea]",5000 to 100000
2,"Cc1cc(NC(=O)Nc2c[nH]c3ncc(F)cc23)cnc1N1CC(F)(F)C1 [Compound 171, 1-(6-(3,3-difluoroazetidin-1-yl)-5-methylpyridin-3-yl)-3-(5-fluoro-1H-pyrrolo[2,3-b]pyridin-3-yl)urea]",200 to 1000
3,"O=C(Nc1cnc(N2CCC(F)(F)CC2)c(Cl)c1)Nc1c[nH]c2ncc(F)cc12 [Compound 110, 1-(5-chloro-6-(4,4-difluoropiperidin-1-yl)pyridin-3-yl)-3-(5-fluoro-1H-pyrrolo[2,3-b]pyridin-3-yl)urea]",40 to 200
4,"O=C(Nc1cnc(C2CCN(CC(F)(F)F)CC2)c(Cl)c1)Nc1c[nH]c2cccnc12 [Compound 222, 1-(5-chloro-6-(1-(2,2,2-trifluoroethyl)piperidin-4-yl)pyridin-3-yl)-3-(1H-pyrrolo[3,2-b]pyridin-3-yl)urea]",200 to 1000
5,"CC(C)(C)OC(=O)N1CCC(n2cc(NC(=O)Nc3ccc(C4CCC(F)(F)CC4)nc3)c3cc(F)cnc32)CC1 [Compound 103, tert-butyl 4-(3-(3-(6-(4,4-difluorocyclohexyl)pyridin-3-yl)ureido)-5-fluoro-1H-pyrrolo[2,3-b]pyridin-1-yl)piperidine-1-carboxylate]",5000 to 100000
6,"O=C(Nc1cc(Cl)c(N2CCC(F)(F)CC2)cn1)Nc1c[nH]c2ncc(F)cc12 [Compound 186, 1-(4-chloro-5-(4,4-difluoropiperidin-1-yl)pyridin-2-yl)-3-(5-fluoro-1H-pyrrolo[2,3-b]pyridin-3-yl)urea]",200 to 1000
7,"Cc1cc(NC(=O)Nc2c[nH]c3ncc(F)cc23)cnc1N1CCC(F)(F)CC1 [Compound 198, 1-(6-(4,4-difluoropiperidin-1-yl)-5-methylpyridin-3-yl)-3-(5-fluoro-1H-pyrrolo[2,3-b]pyridin-3-yl)urea]",40 to 200
8,"O=C(Nc1cnc(N2CCC(F)(F)CC2)c(CCO)c1)Nc1c[nH]c2ncc(F)cc12 [Compound 147, 1-(6-(4,4-difluoropiperidin-1-yl)-5-(2-hydroxyethyl)pyridin-3-yl)-3-(5-fluoro-1H-pyrrolo[2,3-b]pyridin-3-yl)urea]",5000 to 100000
9,"O=C(Nc1cnc(N2CC3(C2)CC(F)(F)C3)c(Cl)c1)Nc1c[nH]c2cccnc12 [Compound 223, 1-(5-chloro-6-(6,6-difluoro-2-azaspiro[3.3]heptan-2-yl)pyridin-3-yl)-3-(1H-pyrrolo[3,2-b]pyridin-3-yl)urea]",200 to 1000
10,"O=C(Nc1cnc(N2CC3(CN(CC(F)(F)F)C3)C2)c(Cl)c1)Nc1c[nH]c2cccnc12 [Compound 224, 1-(5-chloro-6-(6-(2,2,2-trifluoroethyl)-2,6-diazaspiro[3.3]heptan-2-yl)pyridin-3-yl)-3-(1H-pyrrolo[3,2-b]pyridin-3-yl)urea]",5000 to 100000
11,"O=C(Nc1cnc(N2CCC(F)(F)CC2)cn1)Nc1c[nH]c2ncc(F)cc12 [Compound 191, 1-(5-(4,4-difluoropiperidin-1-yl)pyrazin-2-yl)-3-(5-fluoro-1H-pyrrolo[2,3-b]pyridin-3-yl)urea]",200 to 1000
12,"O=C(Nc1cnc(N2CCC3(CCCCO3)CC2)c(Cl)c1)Nc1c[nH]c2cccnc12 [Compound 215, 1-(5-chloro-6-(1-oxa-9-azaspiro[5.5]undecan-9-yl)pyridin-3-yl)-3-(1H-pyrrolo[3,2-b]pyridin-3-yl)urea]",1000 to 5000
13,"O=C(Nc1cc(Cl)c(C2CCC(F)(F)CC2)cn1)Nc1c[nH]c2ncc(F)cc12 [Compound 152, 1-(4-chloro-5-(4,4-difluorocyclohexyl)pyridin-2-yl)-3-(5-fluoro-1H-pyrrolo[2,3-b]pyridin-3-yl)urea]",40 to 200

# The remaining lines, values ahead:
row,EC50 [nM],Compound
1,200 to 1000,"O=C(Nc1cnc(N2CCC(F)(F)CC2)c(F)c1)Nc1c[nH]c2cccnc12 [Compound 230, 1-(6-(4,4-difluoropiperidin-1-yl)-5-fluoropyridin-3-yl)-3-(1H-pyrrolo[3,2-b]pyridin-3-yl)urea]"
2,200 to 1000,"COc1cc(NC(=O)Nc2c[nH]c3ncc(F)cc23)ncc1C1CCC(F)(F)CC1 [Compound 160, 1-(5-(4,4-difluorocyclohexyl)-4-methoxypyridin-2-yl)-3-(5-fluoro-1H-pyrrolo[2,3-b]pyridin-3-yl)urea]"
3,200 to 1000,"COc1ccc2[nH]cc(NC(=O)Nc3cnc(N4CCC5(CC4)CC(F)(F)C5)c(Cl)c3)c2n1 [Compound 203, 1-(5-chloro-6-(2,2-difluoro-7-azaspiro[3.5]nonan-7-yl)pyridin-3-yl)-3-(5-methoxy-1H-pyrrolo[3,2-b]pyridin-3-yl)urea]"
4,5000 to 100000,"CN(C)c1ccc2[nH]cc(NC(=O)Nc3cnc(N4CCC(F)(F)CC4)c(F)c3)c2n1 [Compound 175, 1-(6-(4,4-difluoropiperidin-1-yl)-5-fluoropyridin-3-yl)-3-(5-(dimethylamino)-1H-pyrrolo[3,2-b]pyridin-3-yl)urea]"
5,200 to 1000,"O=C(Nc1cnc(C2CCC(F)(F)CC2)c(Cl)c1)Nc1c[nH]c2cccnc12 [Compound 142, 1-(5-chloro-6-(4,4-difluorocyclohexyl)pyridin-3-yl)-3-(1H-pyrrolo[3,2-b]pyridin-3-yl)urea]"
6,200 to 1000,"COc1ccc2[nH]cc(NC(=O)Nc3ccc(C4CCC(F)(F)CC4)nc3)c2n1 [Compound 213, 1-(6-(4,4-difluorocyclohexyl)pyridin-3-yl)-3-(5-methoxy-1H-pyrrolo[3,2-b]pyridin-3-yl)urea]"
7,5000 to 100000,"O=C(Nc1ccc(C2CCC(F)(F)CC2)nc1)Nc1c[nH]c2ncc(-c3cccc(CO)c3)cc12 [Compound 105, 1-(6-(4,4-difluorocyclohexyl)pyridin-3-yl)-3-(5-(3-(hydroxymethyl)phenyl)-1H-pyrrolo[2,3-b]pyridin-3-yl)urea]"
8,200 to 1000,"COc1ccc2[nH]cc(NC(=O)Nc3cnc(N4CCC(F)(F)CC4)c(Cl)c3)c2n1 [Compound 141, 1-(5-chloro-6-(4,4-difluoropiperidin-1-yl)pyridin-3-yl)-3-(5-methoxy-1H-pyrrolo[3,2-b]pyridin-3-yl)urea]"
9,200 to 1000,"COc1cc2c(NC(=O)Nc3ccc(C4CCC(F)(F)CC4)c(C#N)c3)c[nH]c2cn1 [Compound 154, 1-(3-cyano-4-(4,4-difluorocyclohexyl)phenyl)-3-(5-methoxy-1H-pyrrolo[2,3-c]pyridin-3-yl)urea]"
10,200 to 1000,"COc1ccc2[nH]cc(NC(=O)Nc3cnc(N4CC(F)(F)C4)c(Cl)c3)c2n1 [Compound 231, 1-(5-chloro-6-(3,3-difluoroazetidin-1-yl)pyridin-3-yl)-3-(5-methoxy-1H-pyrrolo[3,2-b]pyridin-3-yl)urea]"
11,200 to 1000,"COc1ccc2[nH]cc(NC(=O)Nc3cnc(N4CCC(F)(F)CC4)c(F)c3)c2n1 [Compound 187, 1-(6-(4,4-difluoropiperidin-1-yl)-5-fluoropyridin-3-yl)-3-(5-methoxy-1H-pyrrolo[3,2-b]pyridin-3-yl)urea]"

# Same assay, conditions: 2′3′cGAMP 15 μM, 24 h, numeric bounds
row,Compound,EC50 [nM]
1,"COc1ccc2[nH]cc(NC(=O)Nc3cnn(C4CCC(F)(F)CC4)c3)c2n1 [Compound 209, 1-(1-(4,4-difluorocyclohexyl)-1H-pyrazol-4-yl)-3-(5-methoxy-1H-pyrrolo[3,2-b]pyridin-3-yl)urea]",> 30000
2,"O=C(Nc1ccc(N2CCC(F)(F)CC2)nc1)Nc1c[nH]c2cccnc12 [Compound 220, 1-(6-(4,4-difluoropiperidin-1-yl)pyridin-3-yl)-3-(1H-pyrrolo[3,2-b]pyridin-3-yl)urea]",> 30000
3,"Cc1cc(NC(=O)Nc2c[nH]c3ncc(F)cc23)cnc1N1CC2(CC(O)C2)C1 [Compound 156, 1-(5-fluoro-1H-pyrrolo[2,3-b]pyridin-3-yl)-3-(6-(6-hydroxy-2-azaspiro[3.3]heptan-2-yl)-5-methylpyridin-3-yl)urea]",> 30000
4,"O=C(Nc1ccc(C2CCC(F)(F)CC2)nc1)Nc1cn(C2CCCNC2)c2ncc(F)cc12 (stereo not shown) [Compound 123, 1-(6-(4,4-difluorocyclohexyl)pyridin-3-yl)-3-(5-fluoro-1-(piperidin-3-yl)-1H-pyrrolo[2,3-b]pyridin-3-yl)urea]",> 30000
